Measured values as given in patent publication US20120151636A1, “Peptides for Stimulating Plant Disease Resistance” (The Regents of the University of California, priority 2009, published 2012).
“Also recorded” adds a separate entry of the source.

Experiments:
TP309-XA21 rice leaves = system: TP309-XA21 rice leaves; set-up: species or system Oryza sativa ssp. japonica; settings: in vivo
Myc-XA21 = molecular target: T1, Myc-XA21 (Oryza sativa subsp. indica, UniProt Q1MX30); assay: Ax21/XA21 binding assay (cross-linking and co-immunoprecipitation); set-up: species or system rice; settings: 5- to 10-fold excess competitor over HA-tagged AxY^S22; Myc-XA21 leaf extracts
T1 construct: expressed in transfected cells; host or cells: leaf extract of a Kitaake (Oryza sativa ssp. japonica) transgenic rice line carrying Myc-XA21
T1 sequence (Q1MX30 24-1025): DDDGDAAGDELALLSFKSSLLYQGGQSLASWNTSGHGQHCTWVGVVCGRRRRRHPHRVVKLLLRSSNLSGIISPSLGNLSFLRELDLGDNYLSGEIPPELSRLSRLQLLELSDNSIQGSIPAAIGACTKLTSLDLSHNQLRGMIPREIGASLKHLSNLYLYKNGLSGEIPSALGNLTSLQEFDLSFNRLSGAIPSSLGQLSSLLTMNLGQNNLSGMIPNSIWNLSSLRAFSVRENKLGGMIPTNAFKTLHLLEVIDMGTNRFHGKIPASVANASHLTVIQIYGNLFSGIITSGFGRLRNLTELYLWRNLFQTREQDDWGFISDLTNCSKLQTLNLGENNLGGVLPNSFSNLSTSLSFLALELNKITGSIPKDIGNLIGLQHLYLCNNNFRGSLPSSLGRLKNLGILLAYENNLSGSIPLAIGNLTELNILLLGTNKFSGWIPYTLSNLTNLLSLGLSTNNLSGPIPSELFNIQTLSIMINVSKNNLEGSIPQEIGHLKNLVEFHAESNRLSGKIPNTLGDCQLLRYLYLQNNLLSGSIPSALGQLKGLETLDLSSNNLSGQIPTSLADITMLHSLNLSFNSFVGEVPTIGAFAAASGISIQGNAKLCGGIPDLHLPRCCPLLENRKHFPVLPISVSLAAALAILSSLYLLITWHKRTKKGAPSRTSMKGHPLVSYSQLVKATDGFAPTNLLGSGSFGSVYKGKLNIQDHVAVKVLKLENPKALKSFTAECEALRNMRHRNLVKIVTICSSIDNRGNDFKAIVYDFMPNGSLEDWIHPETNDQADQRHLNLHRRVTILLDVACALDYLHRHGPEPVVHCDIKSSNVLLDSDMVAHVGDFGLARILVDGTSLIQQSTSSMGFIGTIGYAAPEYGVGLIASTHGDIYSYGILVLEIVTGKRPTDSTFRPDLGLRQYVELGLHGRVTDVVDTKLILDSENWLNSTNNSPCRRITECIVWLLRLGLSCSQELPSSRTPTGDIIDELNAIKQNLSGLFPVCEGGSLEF
Experimental: Binding of the C terminal HA tagged AxY^S22 (AxY^S22-HA) to N-terminal tagged Myc XA21 (Myc-XA21) complex was carried out using cross-linked analysis according to methods described previously (C. Zipfel et al., Cell 125, 749 (2006); Z. Bauer, L. Gomez-Gomez, T. Boller, G. Felix, J Biol Chem 276, 45669 (2001); D. Chinchilla, Z. Bauer, M. Regenass, T. Boller, G. Felix, Plant Cell 18, 465 (2006)). Fully expanded rice leaves were harvested from five-week old Myc-XA21 transgenic and Kitaake control plants. Total proteins were extracted from five g of leaf tissue in 10 ml of ice-cold extraction buffer [0.15 M NaCl, 0.01 M Na-phosphate pH 7.2, 2 mM EDTA, 0.1% Triton X-100, 10 mM β-mercaptoethanol, 20 mM NaF, 1 mM PMSF, 1% Protease cocktail (Sigma), 2 μg/ml leupeptin, 2 μg/ml antipain, and 2 μg/ml aprotinin] […] Duplicate protein gel blots were analyzed with anti-Myc and anti-HA antibodies, respectively.

PXO99ΔraxST = system: PXO99ΔraxST; set-up: species or system Xanthomonas oryzae pv. oryzae; settings: in vivo
[1] = molecular target: XA21 (in leaves of the TP309-XA21 transgenic rice line 106-17-3-37) (rice) (UniProt Q1MX30); assay: cell-based or functional assay
OsFLS2 = OsFLS2 (Oryza sativa subsp. japonica, UniProt Q0JA29); settings: in rice; cited from earlier work
Sequence of OsFLS2 (Q0JA29 42-1183): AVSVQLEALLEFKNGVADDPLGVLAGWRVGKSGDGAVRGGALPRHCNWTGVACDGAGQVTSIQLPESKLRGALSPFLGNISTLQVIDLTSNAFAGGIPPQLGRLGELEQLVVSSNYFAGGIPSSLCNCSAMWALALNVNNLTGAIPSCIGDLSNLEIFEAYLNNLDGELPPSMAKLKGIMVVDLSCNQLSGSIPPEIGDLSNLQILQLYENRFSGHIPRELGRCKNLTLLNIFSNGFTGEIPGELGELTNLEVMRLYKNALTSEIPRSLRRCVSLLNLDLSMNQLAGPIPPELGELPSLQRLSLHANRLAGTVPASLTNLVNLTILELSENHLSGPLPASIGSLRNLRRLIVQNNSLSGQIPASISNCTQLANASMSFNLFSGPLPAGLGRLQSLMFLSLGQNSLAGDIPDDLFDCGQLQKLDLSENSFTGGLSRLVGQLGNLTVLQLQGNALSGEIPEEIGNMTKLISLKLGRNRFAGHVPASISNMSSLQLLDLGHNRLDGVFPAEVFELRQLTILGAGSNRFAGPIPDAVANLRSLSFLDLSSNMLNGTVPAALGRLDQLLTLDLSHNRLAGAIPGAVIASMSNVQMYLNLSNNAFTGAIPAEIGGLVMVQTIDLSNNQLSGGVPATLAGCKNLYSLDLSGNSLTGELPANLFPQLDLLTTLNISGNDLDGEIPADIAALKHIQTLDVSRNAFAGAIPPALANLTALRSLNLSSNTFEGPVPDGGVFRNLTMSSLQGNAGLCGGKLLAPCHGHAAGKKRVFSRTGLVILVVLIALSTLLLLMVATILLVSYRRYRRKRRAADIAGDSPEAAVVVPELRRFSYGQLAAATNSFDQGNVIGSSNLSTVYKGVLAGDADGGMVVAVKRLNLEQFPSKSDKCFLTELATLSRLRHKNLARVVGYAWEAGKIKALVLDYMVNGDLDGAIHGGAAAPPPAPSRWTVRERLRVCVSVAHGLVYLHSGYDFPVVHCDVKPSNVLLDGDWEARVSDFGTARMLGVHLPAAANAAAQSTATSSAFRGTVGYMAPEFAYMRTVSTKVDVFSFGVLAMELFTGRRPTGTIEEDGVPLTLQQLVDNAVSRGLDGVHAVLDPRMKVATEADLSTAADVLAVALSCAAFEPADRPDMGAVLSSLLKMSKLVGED

## AENLS(sulfated Y)NFVEGDYVRTP [axY^S22]
TP309-XA21 rice leaves
  activation of XA21-mediated immunity (lesion length): activated XA21-mediated immunity; also recorded: sufficient to activate XA21 mediated immunity
  concentration sufficient for PAMP activity: 1 µM
Myc-XA21
  effect of competitor on labeling of the 140 kDa band (AxY^S22/XA21 binding): suppressed the labeling of this band
PXO99ΔraxST
  reduction in PXO99ΔraxST population growth: 1000 fold
  triggering of XA21-mediated immunity (growth curve analysis): triggered resistance to PXO99ΔraxST; also recorded: triggers immunity in TP309-XA21 rice

## AENLSYNFVEGDYVRTP [axY22]
PXO99ΔraxST
  triggering of XA21-mediated immunity (growth curve analysis): unable to trigger Xa21-mediated immunity; also recorded: no detectable activity

## Ax21: Activator of Xa21-mediated immunity; 194 aa protein encoded by PXO_03968
TP309-XA21 rice leaves
  extent of induced resistance: robust resistance

## AxY^S22 peptide (no HA tag)
[1]
  concentration sufficient for PAMP activity (lesion length in TP309-XA21 rice): 1 µM
  reduction in PXO99ΔraxST population growth (growth curve analysis): 1000 fold

## QRLSSGLRINSAKDDAAGLAIS (Acidovorax avenae flg22; listed as Acidovorax avenae) [flg22ave, flg22 from the rice pathogen Acidovorax avenae, reference compound]
OsFLS2
  concentration that can induce OsFLS2-mediated response: 0.5 µM
Myc-XA21
  effect of competitor on labeling of the 140 kDa band (AxY^S22/XA21 binding): no effect on AxY^S22/XA21 binding
